Measured values as given in the supplement of paper PMC12463676, “Small-molecule dissolution of stress granules by redox modulation benefits ALS models” (Nature Chemical Biology, 2025).

Tests used:
[1] = compound: O=[As]([O-])(O)O.[K+] [potassium arsenate]; assay: thermal stability z-score vs DMSO; higher = more thermally stabilized by treatment; conditions: HeLa; arsenate concentration 1 mM
Experimental: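 Cellular thermal proteome profiling in HeLa cells treated with 1 mM arsenate for 1 h (DMSO pretreatment), heated to ten temperatures (37-66.3 °C). Soluble protein was quantified by TMT mass spectrometry relative to DMSO controls; the thermal stability score was transformed to a z-score; mean of n = 3 experiments.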

[2] = compound: NC(=O)CCCCC1CCSS1 [lipoamide]; assay: as above; conditions: HeLa, lipoamide concentration 100 µM
Experimental: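 Cellular thermal proteome profiling in HeLa cells. Cells were treated with 100 µM lipoamide for 1 h, with or without 1 mM arsenate for a further 1 h, then heated to ten temperatures (37-66.3 °C), and soluble protein was quantified by TMT mass spectrometry relative to 0.1% DMSO controls. The thermal stability score (sum of log2 fold changes minus the abundance score) was transformed to a z-score; mean of n = 3 experiments.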

[3] = arsenate co-treatment: 1 mM arsenate 1 h
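Note: each temperature applied for 3 min, abundance score taken as mean log2 fold change at the two lowest temperatures, z-score obtained by mean subtraction and division by SD.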

Sequence of UniProt Q8N2K1 (Q8N2K1 whole entry): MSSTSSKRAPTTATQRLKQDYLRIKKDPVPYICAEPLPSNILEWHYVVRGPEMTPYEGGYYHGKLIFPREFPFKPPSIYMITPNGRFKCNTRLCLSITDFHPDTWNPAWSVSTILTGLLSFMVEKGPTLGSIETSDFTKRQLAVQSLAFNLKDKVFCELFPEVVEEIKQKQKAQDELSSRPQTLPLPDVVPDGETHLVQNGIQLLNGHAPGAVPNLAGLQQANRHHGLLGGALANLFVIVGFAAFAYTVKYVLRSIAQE
Sequence of UniProt Q9C0C9 (Q9C0C9 whole entry): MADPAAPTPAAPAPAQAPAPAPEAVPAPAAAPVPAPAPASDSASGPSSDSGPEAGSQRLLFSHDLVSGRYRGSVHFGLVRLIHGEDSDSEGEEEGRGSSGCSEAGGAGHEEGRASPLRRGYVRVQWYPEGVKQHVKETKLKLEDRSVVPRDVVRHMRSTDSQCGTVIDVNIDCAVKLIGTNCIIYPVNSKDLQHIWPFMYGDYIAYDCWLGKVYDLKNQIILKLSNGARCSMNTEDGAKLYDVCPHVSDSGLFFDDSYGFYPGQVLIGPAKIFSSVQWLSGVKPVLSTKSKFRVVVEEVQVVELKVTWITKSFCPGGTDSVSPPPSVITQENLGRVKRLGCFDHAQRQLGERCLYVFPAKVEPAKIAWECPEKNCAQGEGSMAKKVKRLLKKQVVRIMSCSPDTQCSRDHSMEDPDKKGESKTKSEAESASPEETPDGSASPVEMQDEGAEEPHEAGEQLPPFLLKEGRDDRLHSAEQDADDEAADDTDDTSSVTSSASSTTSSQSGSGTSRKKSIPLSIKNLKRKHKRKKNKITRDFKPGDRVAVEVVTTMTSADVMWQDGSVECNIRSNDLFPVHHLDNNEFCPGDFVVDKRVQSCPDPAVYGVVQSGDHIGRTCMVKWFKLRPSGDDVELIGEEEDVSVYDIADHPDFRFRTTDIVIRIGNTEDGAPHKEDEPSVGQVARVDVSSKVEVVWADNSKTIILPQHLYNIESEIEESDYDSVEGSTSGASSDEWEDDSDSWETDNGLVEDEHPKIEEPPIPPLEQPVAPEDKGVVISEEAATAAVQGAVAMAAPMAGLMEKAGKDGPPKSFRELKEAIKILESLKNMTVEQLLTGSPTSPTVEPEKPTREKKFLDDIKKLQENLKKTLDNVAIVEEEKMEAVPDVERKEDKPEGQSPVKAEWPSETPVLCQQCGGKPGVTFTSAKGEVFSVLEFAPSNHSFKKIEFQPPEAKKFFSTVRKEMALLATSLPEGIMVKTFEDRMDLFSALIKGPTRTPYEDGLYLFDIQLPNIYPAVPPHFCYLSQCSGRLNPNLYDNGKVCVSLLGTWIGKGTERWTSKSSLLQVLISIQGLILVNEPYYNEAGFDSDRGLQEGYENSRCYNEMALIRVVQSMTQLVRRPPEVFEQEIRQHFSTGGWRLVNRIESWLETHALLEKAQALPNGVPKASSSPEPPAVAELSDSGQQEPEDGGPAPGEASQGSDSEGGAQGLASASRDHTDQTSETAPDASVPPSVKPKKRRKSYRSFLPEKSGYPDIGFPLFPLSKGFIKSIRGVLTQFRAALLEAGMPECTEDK
Sequence of UniProt Q8IWV8 (Q8IWV8 whole entry): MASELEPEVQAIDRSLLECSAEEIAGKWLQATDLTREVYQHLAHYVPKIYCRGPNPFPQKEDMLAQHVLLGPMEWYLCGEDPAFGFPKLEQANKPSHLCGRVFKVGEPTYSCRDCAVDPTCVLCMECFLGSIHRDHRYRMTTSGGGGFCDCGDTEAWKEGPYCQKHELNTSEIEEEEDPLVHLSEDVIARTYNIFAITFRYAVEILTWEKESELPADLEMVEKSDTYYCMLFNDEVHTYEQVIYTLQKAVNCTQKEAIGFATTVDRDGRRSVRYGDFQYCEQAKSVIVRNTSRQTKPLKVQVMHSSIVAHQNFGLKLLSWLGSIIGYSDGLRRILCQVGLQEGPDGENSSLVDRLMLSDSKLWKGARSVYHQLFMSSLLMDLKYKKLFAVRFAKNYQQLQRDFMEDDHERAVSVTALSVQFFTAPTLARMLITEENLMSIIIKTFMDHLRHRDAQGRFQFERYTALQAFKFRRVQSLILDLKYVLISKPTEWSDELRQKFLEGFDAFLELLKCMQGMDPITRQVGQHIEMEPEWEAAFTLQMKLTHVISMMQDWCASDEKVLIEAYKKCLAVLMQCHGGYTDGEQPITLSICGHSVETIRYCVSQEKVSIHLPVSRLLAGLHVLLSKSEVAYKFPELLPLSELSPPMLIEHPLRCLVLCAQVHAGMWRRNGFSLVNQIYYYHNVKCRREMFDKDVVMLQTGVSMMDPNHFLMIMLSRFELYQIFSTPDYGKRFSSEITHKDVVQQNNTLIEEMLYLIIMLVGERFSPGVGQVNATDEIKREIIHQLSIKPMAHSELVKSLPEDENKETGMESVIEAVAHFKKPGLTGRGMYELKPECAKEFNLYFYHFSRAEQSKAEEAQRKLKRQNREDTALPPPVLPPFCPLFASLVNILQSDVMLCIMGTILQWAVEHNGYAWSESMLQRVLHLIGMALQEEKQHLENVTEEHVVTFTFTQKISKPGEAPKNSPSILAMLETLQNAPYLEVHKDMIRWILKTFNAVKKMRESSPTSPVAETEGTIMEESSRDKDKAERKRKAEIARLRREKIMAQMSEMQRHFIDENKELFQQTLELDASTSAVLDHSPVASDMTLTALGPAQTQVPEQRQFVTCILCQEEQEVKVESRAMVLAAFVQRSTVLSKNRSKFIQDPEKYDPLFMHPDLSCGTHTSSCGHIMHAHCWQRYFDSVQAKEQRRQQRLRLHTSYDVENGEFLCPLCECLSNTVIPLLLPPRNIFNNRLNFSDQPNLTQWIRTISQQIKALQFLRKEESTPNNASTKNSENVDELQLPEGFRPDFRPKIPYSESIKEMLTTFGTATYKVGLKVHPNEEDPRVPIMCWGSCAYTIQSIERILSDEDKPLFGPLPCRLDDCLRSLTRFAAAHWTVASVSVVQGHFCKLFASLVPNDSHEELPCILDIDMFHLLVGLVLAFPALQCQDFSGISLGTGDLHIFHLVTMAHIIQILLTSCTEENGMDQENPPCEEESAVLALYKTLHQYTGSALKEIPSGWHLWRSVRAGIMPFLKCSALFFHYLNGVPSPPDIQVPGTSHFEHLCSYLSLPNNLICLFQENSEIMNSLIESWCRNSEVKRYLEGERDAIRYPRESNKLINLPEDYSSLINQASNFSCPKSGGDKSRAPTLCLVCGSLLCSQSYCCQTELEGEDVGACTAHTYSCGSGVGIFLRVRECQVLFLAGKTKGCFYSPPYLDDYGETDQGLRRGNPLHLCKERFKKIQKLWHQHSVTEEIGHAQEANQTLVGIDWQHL
Sequence of UniProt O14562 (O14562 whole entry): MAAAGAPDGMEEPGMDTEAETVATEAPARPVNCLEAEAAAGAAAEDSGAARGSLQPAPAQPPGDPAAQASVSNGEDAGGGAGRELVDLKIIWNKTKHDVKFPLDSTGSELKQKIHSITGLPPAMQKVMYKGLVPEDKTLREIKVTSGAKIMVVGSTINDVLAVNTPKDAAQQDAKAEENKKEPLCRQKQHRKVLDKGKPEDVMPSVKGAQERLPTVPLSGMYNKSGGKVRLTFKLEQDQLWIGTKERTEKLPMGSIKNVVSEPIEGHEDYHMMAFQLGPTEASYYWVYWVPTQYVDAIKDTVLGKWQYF
Sequence of UniProt Q7Z7E8 (Q7Z7E8 whole entry): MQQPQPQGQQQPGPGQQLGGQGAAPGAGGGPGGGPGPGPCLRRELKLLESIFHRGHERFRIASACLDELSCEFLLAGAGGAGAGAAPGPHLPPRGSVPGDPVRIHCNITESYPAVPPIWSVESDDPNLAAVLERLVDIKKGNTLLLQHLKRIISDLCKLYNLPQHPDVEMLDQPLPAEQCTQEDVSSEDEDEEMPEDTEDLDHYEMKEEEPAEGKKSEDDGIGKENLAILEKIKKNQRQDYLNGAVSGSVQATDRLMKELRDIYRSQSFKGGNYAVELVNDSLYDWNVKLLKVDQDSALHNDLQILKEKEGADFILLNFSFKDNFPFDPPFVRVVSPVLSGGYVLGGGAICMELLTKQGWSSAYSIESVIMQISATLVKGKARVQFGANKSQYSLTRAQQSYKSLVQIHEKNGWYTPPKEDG
Sequence of UniProt Q9BZV1 (Q9BZV1 whole entry): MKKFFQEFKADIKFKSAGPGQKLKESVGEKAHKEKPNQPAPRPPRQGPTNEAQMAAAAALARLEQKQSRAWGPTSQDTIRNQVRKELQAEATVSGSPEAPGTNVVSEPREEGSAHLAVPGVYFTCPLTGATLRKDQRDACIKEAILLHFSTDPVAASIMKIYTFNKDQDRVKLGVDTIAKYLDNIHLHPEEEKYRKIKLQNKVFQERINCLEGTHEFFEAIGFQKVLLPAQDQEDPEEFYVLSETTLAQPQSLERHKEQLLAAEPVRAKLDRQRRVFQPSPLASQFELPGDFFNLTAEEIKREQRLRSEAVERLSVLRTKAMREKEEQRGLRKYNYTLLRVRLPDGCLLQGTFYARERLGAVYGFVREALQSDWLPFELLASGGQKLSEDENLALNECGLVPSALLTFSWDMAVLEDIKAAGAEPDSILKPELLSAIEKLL
Sequence of UniProt P15374 (P15374 whole entry): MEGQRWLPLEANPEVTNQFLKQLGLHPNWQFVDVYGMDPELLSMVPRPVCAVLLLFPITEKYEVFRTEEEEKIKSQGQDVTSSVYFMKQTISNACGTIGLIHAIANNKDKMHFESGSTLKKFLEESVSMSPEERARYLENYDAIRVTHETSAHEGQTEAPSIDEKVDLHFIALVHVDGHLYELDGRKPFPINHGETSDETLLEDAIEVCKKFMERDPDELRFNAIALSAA
Sequence of UniProt Q9NPD8 (Q9NPD8 whole entry): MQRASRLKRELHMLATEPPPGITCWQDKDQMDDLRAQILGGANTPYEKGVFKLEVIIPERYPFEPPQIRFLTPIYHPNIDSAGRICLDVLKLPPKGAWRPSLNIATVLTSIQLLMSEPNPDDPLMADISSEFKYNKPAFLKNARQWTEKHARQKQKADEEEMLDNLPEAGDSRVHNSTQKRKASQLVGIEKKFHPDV
Sequence of UniProt Q9BZL1 (Q9BZL1 whole entry): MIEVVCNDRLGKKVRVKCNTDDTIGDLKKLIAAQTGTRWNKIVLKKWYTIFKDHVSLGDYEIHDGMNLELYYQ

Row | Target | thermal stability z-score [1] | thermal stability z-score [2, 3] | thermal stability z-score ([2]; arsenate co-treatment: none)
1 | UBE2G1 (UniProt P62253) | 0.0592 | 0.288 | 0.286
2 | UBE2G2 (UniProt P60604) | 0.643 | 0.327 | 0.813
3 | UBE2H (UniProt P62256) | 0.295 | 0.213 | -0.108
4 | UBE2I (UniProt P63279) | 0.137 | -0.334 | 0.315
5 | UBE2J1 (UniProt Q9Y385) | 0.198 | -0.909 | -0.103
6 | UBE2J2 (UniProt Q8N2K1) | -0.0347 | -0.286 | -0.461
7 | UBE2K (UniProt P61086) | -0.201 | 0.398 | -0.0311
8 | UBE2L3 (UniProt P68036) | -0.555 | 0.00366 | -0.189
9 | UBE2M (UniProt P61081) | -0.416 | 0.533 | 0.463
10 | UBE2N (UniProt P61088) | -0.899 | -0.524 | -0.293
11 | UBE2O (UniProt Q9C0C9) | 0.509 | 0.0608 | 0.277
12 | UBE2Q1 (UniProt Q7Z7E8) | -0.514 | -0.546 | -0.425
13 | UBE2R2 (UniProt Q712K3) | -0.279 | 0.8 | 0.536
14 | UBE2S (UniProt Q16763) | 0.161 | 0.862 | 0.191
15 | UBE2T (UniProt Q9NPD8) | -0.137 | 0.245 | 0.447
16 | UBE2V2 (UniProt Q15819) | -0.0935 | 0.177 | -0.304
17 | UBE2Z (UniProt Q9H832) | -0.55 | -0.25 | -0.264
18 | UBE3A (UniProt Q05086) | 0.3 | 0.245 | -0.149
19 | UBE3B (UniProt Q7Z3V4) | -0.212 | -0.0453 | -0.155
20 | UBE3C (UniProt Q15386) | 0.79 | -0.19 | 0.18
21 | UBE4A (UniProt Q14139) | 0.86 | -0.217 | -0.148
22 | UBE4B (UniProt O95155) | 0.599 | -0.444 | -0.412
23 | UBFD1 (UniProt O14562) | 0.066 | -0.0131 | -0.0151
24 | UBIAD1 (UniProt Q9Y5Z9) | -0.362 | -0.487 | -0.317

Row | Target | thermal stability z-score [1] | thermal stability z-score [2, 3] | thermal stability z-score ([2]; arsenate co-treatment: none)
25 | UBL4A (UniProt P11441) | 1.11 | 0.683 | 1.2
26 | UBL5 (UniProt Q9BZL1) | -0.107 | -0.115 | -0.0438
27 | UBL7 (UniProt Q96S82) | 0.168 | 0.396 | 0.433
28 | UBLCP1 (UniProt Q8WVY7) | 0.8 | 0.309 | -0.101
29 | UBQLN1 (UniProt Q9UMX0) | 0.778 | 2.04 | 2.04
30 | UBQLN2 (UniProt Q9UHD9) | -0.0552 | 1.26 | 0.932
31 | UBQLN4 (UniProt Q9NRR5) | 0.334 | 1.81 | 1.78
32 | UBR1 (UniProt Q8IWV7) | -0.191 | -0.198 | 0.193
33 | UBR2 (UniProt Q8IWV8) | 0.444 | 0.13 | 0.182
34 | UBR3 (UniProt Q6ZT12) | -0.007 | 0.0839 | 0.139
35 | UBR4 (UniProt Q5T4S7) | 0.242 | -0.162 | -0.16
36 | UBR5 (UniProt O95071) | 1.13 | -0.165 | -0.0498
37 | UBR7 (UniProt Q8N806) | 0.457 | -0.392 | -0.575
38 | UBTF (UniProt P17480) | 0.532 | 0.142 | 0.184
39 | UBXN1 (UniProt Q04323) | -0.0349 | 0.155 | 0.25
40 | UBXN4 (UniProt Q92575) | -0.265 | -0.125 | -0.121
41 | UBXN6 (UniProt Q9BZV1) | -0.12 | -0.186 | -0.134
42 | UBXN7 (UniProt O94888) | -0.679 | -0.462 | 0.55
43 | UBXN8 (UniProt O00124) | -0.0404 | -1.43 | -0.528
44 | UCHL3 (UniProt P15374) | -0.0572 | 0.844 | 0.126
45 | UCHL5 (UniProt Q9Y5K5) | 0.855 | 0.0058 | 0.138
46 | UCK1 (UniProt Q9HA47) | 0.121 | -0.206 | -0.165
47 | UCK2 (UniProt Q9BZX2) | 0.093 | -0.0152 | 0.141
48 | UCKL1 (UniProt Q9NWZ5) | 0.0426 | -0.158 | -0.483

Row | Target | thermal stability z-score [1] | thermal stability z-score [2, 3] | thermal stability z-score ([2]; arsenate co-treatment: none)
49 | UEVLD (UniProt Q8IX04) | 0.0354 | 0.183 | 0.107
50 | UFC1 (UniProt Q9Y3C8) | 0.281 | 0.984 | 0.773
51 | UFD1L (UniProt Q92890) | 0.36 | -0.427 | -0.0782
52 | UFL1 (UniProt O94874) | 0.145 | -0.791 | -0.41
53 | UFM1 (UniProt P61960) | 0.181 | 0.193 | 0.534
54 | UFSP2 (UniProt Q9NUQ7) | 0.0966 | -1.19 | -0.381
55 | UGDH (UniProt O60701) | 1.03 | -0.0997 | 0.267
56 | UGGT1 (UniProt Q9NYU2) | 0.639 | -3.22 | -2.7
57 | UGGT2 (UniProt Q9NYU1) | 0.289 | -1.81 | -1.31
58 | UGP2 (UniProt Q16851) | 0.872 | 0.388 | -0.0879
59 | UGT8 (UniProt Q16880) | 0.235 | 0.0311 | -0.0518
60 | UHRF1 (UniProt Q96T88) | -0.766 | 0.0776 | 0.0619
61 | UHRF1BP1 (UniProt Q6BDS2) | 0.149 | -0.235 | 0.193
62 | UHRF1BP1L (UniProt A0JNW5) | -0.53 | -0.0289 | -0.329
63 | UIMC1 (UniProt Q96RL1) | 0.872 | -0.168 | 0.424
64 | ULK3 (UniProt Q6PHR2) | -0.285 | -0.27 | -0.197
65 | UMPS (UniProt P11172) | -1.02 | 0.111 | 0.297
66 | UNC13B (UniProt O14795) | -0.156 | -0.0346 | -0.119
67 | UNC13D (UniProt Q70J99) | -0.283 | -0.15 | -0.154
68 | UNC45A (UniProt Q9H3U1) | 0.158 | -0.649 | -0.167
69 | UNC93B1 (UniProt Q9H1C4) | 0.487 | 0.172 | -0.000713
70 | UNC119 (UniProt Q13432) | -0.0734 | 0.0331 | 0.106
71 | UNC119B (UniProt A6NIH7) | -0.0898 | 1.07 | 0.468
